In ChEMBL document CHEMBL3525899, “Identification of the cytochrome P450 and other enzymes involved in the in vitro oxidative metabolism of a novel antidepressant, Lu AA21004” (Drug Metab Dispos, 2012):

How the values were obtained:
Cytochrome P450 2E1 = Cytochrome P450 2E1 (Homo sapiens, UniProt P05181); test: Activity of human recombinant CYP2E1 expressed in microsomes isolated from human AHH-1 cells assessed as enzyme-mediated 3-(2,4-dimethylphenylthio)-4-(piperazin-1-yl)phenol formation at 8 to 50 uM after 120 mins by HPLC/MS-MS analysis in presence of NADPH regenerating system with NADP+; type: ADME, cell-free; conditions: 2 h
Liver microsome [1] = test: Drug metabolism in phenotyped human liver microsomes assessed as formation of 3-(2,4-dimethylphenylthio)-4-(piperazin-1-yl)phenol at 8 to 50 uM after 60 mins by HPLC/MS-MS analysis in presence of NADPH regenerating system with NADP+; type: ADME; conditions: 1 h
Cytochrome P450 2C9 = Cytochrome P450 2C9 (Homo sapiens, UniProt P11712); test: Activity of human recombinant CYP2C9 expressed in microsomes isolated from human AHH-1 cells assessed as enzyme-mediated 4-(2-(2,4-dimethylphenylthio)phenyl)piperazin-1-ol formation at 8 to 50 uM after 120 mins by HPLC/MS-MS analysis in presence of NADPH regenerating system with NADP+; type: ADME, cell-free; conditions: 2 h
Liver microsome [2] = test: Drug metabolism in pooled human liver microsomes assessed as formation of (3-methyl-4-(2-(piperazin-1-yl)phenylthio)phenyl)methanol at 100 uM after 30 to 180 mins by HPLC/MS-MS analysis in presence of NADPH regenerating system with NADP+; type: ADME
[3] = target: T1, Flavin-containing monooxygenase 3 (Homo sapiens, UniProt P31513); test: (§1) Activity of human recombinant FMO3 expressed in microsomes isolated from baculovirus infected insect BTI-TN-5B1-4 cells assessed as enzyme-mediated 1-(2-(2,4-dimethylphenylsulfinyl)phenyl)piperazine formation at 8 to 50 uM after 120 mins by HPLC/MS-MS analysis in presence of NADPH regenerating system with NADP+; type: ADME; conditions: 2 h
T1 sequence (P31513 whole entry): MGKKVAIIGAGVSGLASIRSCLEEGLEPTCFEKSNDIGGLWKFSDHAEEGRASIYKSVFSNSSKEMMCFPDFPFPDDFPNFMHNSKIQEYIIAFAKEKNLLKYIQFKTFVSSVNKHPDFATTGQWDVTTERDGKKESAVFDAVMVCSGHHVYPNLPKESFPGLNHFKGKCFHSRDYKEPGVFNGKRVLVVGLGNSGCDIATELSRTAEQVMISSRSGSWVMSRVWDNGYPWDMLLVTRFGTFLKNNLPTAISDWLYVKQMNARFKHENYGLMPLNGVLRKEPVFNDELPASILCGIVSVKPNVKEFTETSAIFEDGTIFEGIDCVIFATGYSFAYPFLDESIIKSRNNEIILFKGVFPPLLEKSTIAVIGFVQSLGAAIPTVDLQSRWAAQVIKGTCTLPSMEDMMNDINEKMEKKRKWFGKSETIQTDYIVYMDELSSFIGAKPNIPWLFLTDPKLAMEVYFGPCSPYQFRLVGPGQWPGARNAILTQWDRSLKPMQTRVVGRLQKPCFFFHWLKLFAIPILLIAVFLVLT

Liver microsome [4] = test: Drug metabolism in pooled human liver microsomes at 100 uM after 30 to 180 mins by HPLC/MS-MS analysis in presence of NADPH regenerating system without NADP+; type: ADME
[5] = target: T1, Flavin-containing monooxygenase 3; test: as §1, with “3-(2,4-dimethylphenylthio)-4-(piperazin-1-yl)phenol” for “1-(2-(2,4-dimethylphenylsulfinyl)phenyl)piperazine”; type: ADME; conditions: 2 h
Liver microsome [6] = test: Drug metabolism in pooled human liver microsomes assessed as formation of 1-(2-(2,4-dimethylphenylsulfinyl)phenyl)piperazine per mg of protein after 30 mins by Michaelis-Menten plot analysis in presence of NADPH regenerating system with NADP+; type: ADME; conditions: 0.5 h
Cytochrome P450 1A2 = target: T2, Cytochrome P450 1A2 (Homo sapiens, UniProt P05177); test: Activity of human recombinant CYP1A2 expressed in microsomes isolated from human AHH-1 cells assessed as enzyme-mediated 3-(2,4-dimethylphenylthio)-4-(piperazin-1-yl)phenol formation at 8 to 50 uM after 120 mins by HPLC/MS-MS analysis in presence of NADPH regenerating system with NADP+; type: ADME, cell-free; conditions: 2 h
T2 sequence (P05177 whole entry): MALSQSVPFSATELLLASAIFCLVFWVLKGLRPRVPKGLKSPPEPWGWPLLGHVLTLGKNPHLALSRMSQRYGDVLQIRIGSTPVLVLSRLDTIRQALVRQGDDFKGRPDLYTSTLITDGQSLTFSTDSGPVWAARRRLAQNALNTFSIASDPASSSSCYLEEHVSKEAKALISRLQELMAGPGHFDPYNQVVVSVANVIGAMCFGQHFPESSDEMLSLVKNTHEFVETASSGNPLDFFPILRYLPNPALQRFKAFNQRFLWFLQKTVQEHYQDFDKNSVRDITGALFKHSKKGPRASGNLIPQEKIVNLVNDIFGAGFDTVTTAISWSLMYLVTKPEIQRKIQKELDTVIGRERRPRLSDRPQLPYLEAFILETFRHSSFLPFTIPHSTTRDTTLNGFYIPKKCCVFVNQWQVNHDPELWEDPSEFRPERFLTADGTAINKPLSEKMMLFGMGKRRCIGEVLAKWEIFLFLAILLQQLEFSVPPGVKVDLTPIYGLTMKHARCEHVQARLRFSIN

[7] = target: T1, Flavin-containing monooxygenase 3; test: as §1, with “3-methyl-4-(2-(piperazin-1-yl)phenylthio)benzoic acid” for “1-(2-(2,4-dimethylphenylsulfinyl)phenyl)piperazine”; type: ADME; conditions: 2 h
[8] = target: T1, Flavin-containing monooxygenase 3; test: as §1, with “3-methyl-4-(2-(piperazin-1-yl)phenylthio)phenyl)methanol” for “1-(2-(2,4-dimethylphenylsulfinyl)phenyl)piperazine”; type: ADME; conditions: 2 h
Liver microsome [9] = test: Drug metabolism in phenotyped human liver microsomes assessed as formation of 4-(2-(2,4-dimethylphenylthio)phenyl)piperazin-1-ol at 8 to 50 uM after 60 mins by HPLC/MS-MS analysis in presence of NADPH regenerating system with NADP+; type: ADME; conditions: 1 h
Cytochrome P450 2D6 = Cytochrome P450 2D6 (Homo sapiens, UniProt P10635); test: Activity of human recombinant CYP2D6 expressed in microsomes isolated from human AHH-1 cells assessed as enzyme-mediated 3-(2,4-dimethylphenylthio)-4-(piperazin-1-yl)phenol formation at 8 to 50 uM after 120 mins by HPLC/MS-MS analysis in presence of NADPH regenerating system with NADP+; type: ADME, cell-free; conditions: 2 h
Sequence of Cytochrome P450 2D6 (P10635 whole entry): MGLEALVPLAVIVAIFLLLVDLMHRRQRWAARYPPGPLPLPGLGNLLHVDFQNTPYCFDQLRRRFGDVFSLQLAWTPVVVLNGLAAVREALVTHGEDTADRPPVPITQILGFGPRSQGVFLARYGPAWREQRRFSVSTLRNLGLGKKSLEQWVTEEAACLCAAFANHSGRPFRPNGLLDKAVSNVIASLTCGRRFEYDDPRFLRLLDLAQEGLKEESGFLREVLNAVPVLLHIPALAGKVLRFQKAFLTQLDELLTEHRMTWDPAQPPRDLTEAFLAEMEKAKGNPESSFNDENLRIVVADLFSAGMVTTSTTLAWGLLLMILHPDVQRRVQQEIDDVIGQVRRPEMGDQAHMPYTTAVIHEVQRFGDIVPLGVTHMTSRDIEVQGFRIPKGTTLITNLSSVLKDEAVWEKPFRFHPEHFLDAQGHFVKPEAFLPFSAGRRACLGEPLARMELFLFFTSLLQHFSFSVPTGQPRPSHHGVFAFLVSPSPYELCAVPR

Sequence of Cytochrome P450 2E1 (P05181 whole entry): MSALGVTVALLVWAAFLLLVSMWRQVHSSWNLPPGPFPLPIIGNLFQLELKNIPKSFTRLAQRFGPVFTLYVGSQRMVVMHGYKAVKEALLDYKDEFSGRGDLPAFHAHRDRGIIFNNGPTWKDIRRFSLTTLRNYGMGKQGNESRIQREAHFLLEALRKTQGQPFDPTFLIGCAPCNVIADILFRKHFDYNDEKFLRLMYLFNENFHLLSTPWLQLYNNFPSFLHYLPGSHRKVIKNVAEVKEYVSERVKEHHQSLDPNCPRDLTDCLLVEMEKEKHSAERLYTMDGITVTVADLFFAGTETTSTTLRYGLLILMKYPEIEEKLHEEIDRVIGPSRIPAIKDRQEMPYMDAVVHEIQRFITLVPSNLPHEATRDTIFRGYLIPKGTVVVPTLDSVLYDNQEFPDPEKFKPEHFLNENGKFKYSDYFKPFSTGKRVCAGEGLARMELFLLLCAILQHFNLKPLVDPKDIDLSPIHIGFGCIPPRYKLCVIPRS
Sequence of Cytochrome P450 2C9 (P11712 whole entry): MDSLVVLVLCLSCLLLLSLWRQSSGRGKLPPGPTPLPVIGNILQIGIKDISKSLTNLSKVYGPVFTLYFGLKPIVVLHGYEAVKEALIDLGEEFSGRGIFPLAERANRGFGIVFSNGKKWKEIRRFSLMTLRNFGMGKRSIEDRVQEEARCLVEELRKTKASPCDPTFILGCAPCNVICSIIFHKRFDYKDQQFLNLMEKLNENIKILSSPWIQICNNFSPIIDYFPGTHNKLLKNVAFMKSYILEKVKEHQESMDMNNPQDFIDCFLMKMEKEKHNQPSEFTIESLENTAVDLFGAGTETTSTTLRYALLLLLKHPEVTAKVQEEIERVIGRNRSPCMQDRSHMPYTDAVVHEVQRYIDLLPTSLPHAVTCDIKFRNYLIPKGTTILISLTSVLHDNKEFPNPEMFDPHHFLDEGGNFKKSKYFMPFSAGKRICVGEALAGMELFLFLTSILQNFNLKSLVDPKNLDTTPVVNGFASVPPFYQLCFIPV

- Drug metabolism (Cytochrome P450 2E1): metabolite_not_detected
- Drug metabolism (Liver microsome [1]): metabolite_detected
- Drug metabolism (Cytochrome P450 2C9): metabolite_detected
- Drug metabolism (Liver microsome [2]): metabolite_detected
- Drug metabolism [3]: metabolite_not_detected
- Drug metabolism (Liver microsome [4]): metabolite_not_detected
- Drug metabolism [5]: metabolite_not_detected
- Vmax(app) (Liver microsome [6]): >= 227 pmol/min
- Drug metabolism (Cytochrome P450 1A2): metabolite_not_detected
- Drug metabolism [7]: metabolite_not_detected
- Drug metabolism [8]: metabolite_not_detected
- Drug metabolism (Liver microsome [9]): metabolite_detected
- Drug metabolism (Cytochrome P450 2D6): metabolite_detected
Compound: Br.Cc1ccc(Sc2ccccc2N2CCNCC2)c(C)c1 [VORTIOXETINE HYDROBROMIDE]
